Results published in paper PMC11289455 (Scientific Reports, 2024).
Read-outs that look alike come from different tables or passages of the source.

What was measured:
[1] = biological target: T1, A2A (adenosine 2A receptor) (Homo sapiens, UniProt P29274); test: SafetyScreen44: A2A; format: binding
T1 construct: purchased Eurofins Cerep SafetyScreen44

[2] = biological target: T2, D1 (dopamine D1 receptor) (Homo sapiens, UniProt P21728); test: SafetyScreen44: D1; format: binding
T2 construct: purchased Eurofins Cerep SafetyScreen44

[3] = biological target: T3, N neuronal α4β2 (neuronal alpha-4-beta-2 nicotinic acetylcholine receptor) (Homo sapiens, UniProt P17787+P43681); test: SafetyScreen44: N neuronal α4β2; format: binding
T3 construct: purchased Eurofins Cerep SafetyScreen44

[4] = biological target: T4, μ (MOP) (mu opioid receptor) (Homo sapiens, UniProt P35372); test: SafetyScreen44: μ (MOP); format: binding
T4 construct: purchased Eurofins Cerep SafetyScreen44

[5] = biological target: T5, 5-HT2A (serotonin 2A receptor) (Homo sapiens, UniProt P28223); test: SafetyScreen44: 5-HT2A; format: binding
T5 construct: purchased Eurofins Cerep SafetyScreen44

[6] = biological target: T6, GR (glucocorticoid receptor) (Homo sapiens, UniProt P04150); test: SafetyScreen44: GR; format: binding
T6 construct: purchased Eurofins Cerep SafetyScreen44
T6 sequence (P04150 1-777): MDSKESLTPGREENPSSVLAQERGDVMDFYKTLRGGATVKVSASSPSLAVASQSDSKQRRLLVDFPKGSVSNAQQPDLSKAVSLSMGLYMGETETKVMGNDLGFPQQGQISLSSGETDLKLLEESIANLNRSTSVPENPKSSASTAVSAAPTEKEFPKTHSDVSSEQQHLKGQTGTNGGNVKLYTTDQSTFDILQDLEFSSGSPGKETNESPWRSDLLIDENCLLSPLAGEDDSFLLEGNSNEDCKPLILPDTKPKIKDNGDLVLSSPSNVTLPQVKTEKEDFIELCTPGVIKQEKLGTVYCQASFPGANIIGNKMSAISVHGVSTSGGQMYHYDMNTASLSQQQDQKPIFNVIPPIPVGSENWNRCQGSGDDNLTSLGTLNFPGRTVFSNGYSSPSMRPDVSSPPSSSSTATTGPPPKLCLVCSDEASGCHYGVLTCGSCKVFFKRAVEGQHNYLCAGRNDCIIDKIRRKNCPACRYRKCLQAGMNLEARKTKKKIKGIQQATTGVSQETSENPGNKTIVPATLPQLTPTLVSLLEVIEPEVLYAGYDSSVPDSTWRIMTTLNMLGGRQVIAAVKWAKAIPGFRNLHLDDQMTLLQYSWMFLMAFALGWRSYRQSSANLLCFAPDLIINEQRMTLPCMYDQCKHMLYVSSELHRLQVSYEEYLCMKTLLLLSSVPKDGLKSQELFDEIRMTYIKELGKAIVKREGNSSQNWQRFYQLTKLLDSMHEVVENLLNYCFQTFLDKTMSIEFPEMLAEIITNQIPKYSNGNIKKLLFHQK

[7] = biological target: T7, Norepinephrine transporter (Homo sapiens, UniProt P23975); test: SafetyScreen44: norepinephrine transporter; format: binding
T7 construct: purchased Eurofins Cerep SafetyScreen44

[8] = biological target: T8, Dopamine transporter (Homo sapiens, UniProt Q01959); test: SafetyScreen44: dopamine transporter; format: binding
T8 construct: purchased Eurofins Cerep SafetyScreen44

[9] = biological target: T9, COX1 (Homo sapiens, UniProt P23219); test: SafetyScreen44: COX1; format: biochemical
T9 construct: purchased Eurofins Cerep SafetyScreen44

[10] = Plasma concentration in rat pharmacokinetic-pharmacodynamic model; format: in vivo
[11] = First-in-human study, pharmacokinetics; format: in vivo; conditions: healthy participants
Procedure: The purpose of the first-in-human, single-center, randomized, double-blind, placebo-controlled study was to determine the safety, tolerability, pharmacokinetics, and pharmacodynamics of JNJ-77242113 in healthy participants. […] AEs were coded using the Medical Dictionary for Regulatory Activities (Version 23.1).
Whole blood samples were collected in TruCulture Tubes containing 10 ng/mL IL-2 and 20 ng/mL IL-18 with or without additional IL-23 (0.5 ng/mL, R&D Systems/Biotechne). […] IFNγ was quantified via the V-Plex-plus human IFNγ kit (MSD).
Mean concentration–time profiles for each treatment/dose group were presented graphically. Descriptive statistics were used to describe demographic and safety data.

[12] = Nonclinical tissue distribution in monkeys; format: in vivo, monkey; conditions: variety of tissues (e.g. colon, ileum, and skin), nonclinical data
[13] = Part 2 (MAD), once daily oral dosing for 10 days

T7 sequence (P23975 whole entry): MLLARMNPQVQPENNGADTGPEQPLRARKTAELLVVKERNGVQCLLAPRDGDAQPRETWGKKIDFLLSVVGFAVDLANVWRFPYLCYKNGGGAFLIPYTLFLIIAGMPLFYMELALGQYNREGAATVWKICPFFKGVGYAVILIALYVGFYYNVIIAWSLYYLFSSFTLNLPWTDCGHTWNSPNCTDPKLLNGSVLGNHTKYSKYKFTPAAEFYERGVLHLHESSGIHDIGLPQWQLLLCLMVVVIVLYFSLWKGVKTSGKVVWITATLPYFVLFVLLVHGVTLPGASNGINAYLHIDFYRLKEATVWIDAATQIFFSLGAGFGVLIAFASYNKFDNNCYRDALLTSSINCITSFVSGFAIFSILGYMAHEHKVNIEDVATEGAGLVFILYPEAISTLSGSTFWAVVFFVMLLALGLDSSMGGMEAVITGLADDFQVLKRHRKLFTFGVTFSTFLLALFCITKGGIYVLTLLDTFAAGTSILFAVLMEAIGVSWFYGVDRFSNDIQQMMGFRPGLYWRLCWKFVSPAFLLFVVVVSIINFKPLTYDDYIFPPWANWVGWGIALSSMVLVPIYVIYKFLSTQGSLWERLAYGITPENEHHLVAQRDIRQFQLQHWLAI
T1 sequence (P29274 whole entry): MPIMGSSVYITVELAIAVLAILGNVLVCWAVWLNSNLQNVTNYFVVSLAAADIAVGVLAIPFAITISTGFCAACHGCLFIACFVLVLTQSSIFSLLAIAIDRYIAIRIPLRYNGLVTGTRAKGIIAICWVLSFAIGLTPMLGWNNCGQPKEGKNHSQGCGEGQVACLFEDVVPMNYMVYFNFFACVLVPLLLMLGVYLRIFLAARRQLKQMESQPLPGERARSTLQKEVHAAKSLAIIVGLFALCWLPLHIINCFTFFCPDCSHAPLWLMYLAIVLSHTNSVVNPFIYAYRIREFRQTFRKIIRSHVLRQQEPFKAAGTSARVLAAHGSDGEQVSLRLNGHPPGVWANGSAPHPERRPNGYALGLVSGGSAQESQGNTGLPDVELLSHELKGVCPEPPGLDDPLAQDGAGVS
T5 sequence (P28223 whole entry): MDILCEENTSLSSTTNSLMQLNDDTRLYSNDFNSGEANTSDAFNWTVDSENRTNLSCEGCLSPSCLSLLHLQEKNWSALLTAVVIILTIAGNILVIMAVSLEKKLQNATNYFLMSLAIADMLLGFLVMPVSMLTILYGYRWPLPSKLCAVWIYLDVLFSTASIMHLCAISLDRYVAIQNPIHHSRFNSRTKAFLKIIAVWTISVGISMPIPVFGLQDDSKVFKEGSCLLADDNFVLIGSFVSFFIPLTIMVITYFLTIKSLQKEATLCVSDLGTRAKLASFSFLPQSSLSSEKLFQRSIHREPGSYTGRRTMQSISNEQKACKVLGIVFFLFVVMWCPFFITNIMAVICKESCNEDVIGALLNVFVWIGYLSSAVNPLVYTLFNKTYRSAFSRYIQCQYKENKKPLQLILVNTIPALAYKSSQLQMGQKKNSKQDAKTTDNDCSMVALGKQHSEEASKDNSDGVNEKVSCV
T4 sequence (P35372 whole entry): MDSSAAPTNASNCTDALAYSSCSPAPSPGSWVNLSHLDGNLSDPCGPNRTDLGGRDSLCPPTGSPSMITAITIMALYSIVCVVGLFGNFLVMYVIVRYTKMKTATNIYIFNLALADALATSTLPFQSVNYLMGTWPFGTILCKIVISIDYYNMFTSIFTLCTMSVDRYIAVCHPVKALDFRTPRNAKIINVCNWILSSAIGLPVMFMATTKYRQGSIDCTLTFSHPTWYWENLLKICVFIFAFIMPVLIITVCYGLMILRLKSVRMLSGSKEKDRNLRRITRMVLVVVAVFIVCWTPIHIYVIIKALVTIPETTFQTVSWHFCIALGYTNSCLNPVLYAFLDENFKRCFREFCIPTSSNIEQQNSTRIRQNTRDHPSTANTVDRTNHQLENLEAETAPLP
T3 sequence (P43681 29-627 limits assumed): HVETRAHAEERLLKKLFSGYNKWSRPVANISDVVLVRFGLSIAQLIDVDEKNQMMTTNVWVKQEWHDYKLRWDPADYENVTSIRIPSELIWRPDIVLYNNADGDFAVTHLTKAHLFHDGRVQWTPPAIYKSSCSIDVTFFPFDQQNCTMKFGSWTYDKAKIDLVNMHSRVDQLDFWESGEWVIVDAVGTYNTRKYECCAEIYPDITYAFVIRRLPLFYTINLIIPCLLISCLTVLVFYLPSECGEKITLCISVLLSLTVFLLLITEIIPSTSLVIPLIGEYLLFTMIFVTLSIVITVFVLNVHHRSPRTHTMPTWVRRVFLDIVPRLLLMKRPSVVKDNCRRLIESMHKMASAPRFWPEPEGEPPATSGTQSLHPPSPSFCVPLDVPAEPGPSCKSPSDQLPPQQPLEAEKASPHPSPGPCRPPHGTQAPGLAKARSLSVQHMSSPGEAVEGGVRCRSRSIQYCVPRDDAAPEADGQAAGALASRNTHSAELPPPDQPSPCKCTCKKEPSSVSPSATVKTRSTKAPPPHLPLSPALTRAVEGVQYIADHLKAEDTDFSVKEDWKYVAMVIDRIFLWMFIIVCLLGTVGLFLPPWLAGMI
T3 sequence (P17787 26-502): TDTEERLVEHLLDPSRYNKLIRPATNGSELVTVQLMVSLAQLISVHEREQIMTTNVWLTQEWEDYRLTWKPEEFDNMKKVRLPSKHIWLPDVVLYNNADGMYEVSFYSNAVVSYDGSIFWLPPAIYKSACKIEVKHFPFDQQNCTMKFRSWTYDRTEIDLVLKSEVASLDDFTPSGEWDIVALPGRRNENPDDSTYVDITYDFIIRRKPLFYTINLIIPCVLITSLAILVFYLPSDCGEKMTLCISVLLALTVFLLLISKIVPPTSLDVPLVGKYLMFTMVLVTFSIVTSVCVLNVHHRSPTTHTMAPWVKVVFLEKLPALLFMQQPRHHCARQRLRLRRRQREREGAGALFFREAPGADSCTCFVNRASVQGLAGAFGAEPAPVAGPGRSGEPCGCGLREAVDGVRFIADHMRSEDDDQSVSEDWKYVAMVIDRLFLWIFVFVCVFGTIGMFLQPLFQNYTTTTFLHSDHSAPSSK
T9 sequence (P23219 24-599): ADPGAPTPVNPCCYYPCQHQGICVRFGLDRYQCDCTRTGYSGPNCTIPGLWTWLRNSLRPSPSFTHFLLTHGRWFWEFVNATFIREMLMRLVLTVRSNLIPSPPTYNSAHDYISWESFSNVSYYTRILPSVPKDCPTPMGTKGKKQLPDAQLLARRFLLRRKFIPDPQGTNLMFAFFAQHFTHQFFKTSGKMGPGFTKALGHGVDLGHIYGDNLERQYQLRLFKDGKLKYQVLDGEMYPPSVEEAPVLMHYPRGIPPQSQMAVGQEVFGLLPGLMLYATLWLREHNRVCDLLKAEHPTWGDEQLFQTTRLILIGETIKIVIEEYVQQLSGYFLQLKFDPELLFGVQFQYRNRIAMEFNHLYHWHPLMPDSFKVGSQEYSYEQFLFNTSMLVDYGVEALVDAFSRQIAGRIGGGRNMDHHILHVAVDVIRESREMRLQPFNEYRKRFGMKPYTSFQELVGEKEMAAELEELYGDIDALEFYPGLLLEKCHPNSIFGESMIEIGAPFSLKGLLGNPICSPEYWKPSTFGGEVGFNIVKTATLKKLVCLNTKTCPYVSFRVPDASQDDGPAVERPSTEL
T8 sequence (Q01959 whole entry): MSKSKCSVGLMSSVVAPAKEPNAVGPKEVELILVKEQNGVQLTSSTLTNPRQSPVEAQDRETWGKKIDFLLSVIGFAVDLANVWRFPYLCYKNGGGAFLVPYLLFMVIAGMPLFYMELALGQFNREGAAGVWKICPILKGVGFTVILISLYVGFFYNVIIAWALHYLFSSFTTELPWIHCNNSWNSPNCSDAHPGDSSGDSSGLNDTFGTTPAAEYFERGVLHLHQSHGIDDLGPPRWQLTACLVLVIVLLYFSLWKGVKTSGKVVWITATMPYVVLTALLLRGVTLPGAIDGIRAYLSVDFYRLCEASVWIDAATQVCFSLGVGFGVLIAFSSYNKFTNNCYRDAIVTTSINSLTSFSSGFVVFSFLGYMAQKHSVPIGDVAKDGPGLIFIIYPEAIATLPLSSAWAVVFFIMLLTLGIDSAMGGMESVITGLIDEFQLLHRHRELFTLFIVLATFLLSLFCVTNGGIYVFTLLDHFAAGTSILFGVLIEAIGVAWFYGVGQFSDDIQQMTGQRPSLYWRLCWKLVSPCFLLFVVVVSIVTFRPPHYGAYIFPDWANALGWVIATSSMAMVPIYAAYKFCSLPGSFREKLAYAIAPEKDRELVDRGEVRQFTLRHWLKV
T2 sequence (P21728 whole entry): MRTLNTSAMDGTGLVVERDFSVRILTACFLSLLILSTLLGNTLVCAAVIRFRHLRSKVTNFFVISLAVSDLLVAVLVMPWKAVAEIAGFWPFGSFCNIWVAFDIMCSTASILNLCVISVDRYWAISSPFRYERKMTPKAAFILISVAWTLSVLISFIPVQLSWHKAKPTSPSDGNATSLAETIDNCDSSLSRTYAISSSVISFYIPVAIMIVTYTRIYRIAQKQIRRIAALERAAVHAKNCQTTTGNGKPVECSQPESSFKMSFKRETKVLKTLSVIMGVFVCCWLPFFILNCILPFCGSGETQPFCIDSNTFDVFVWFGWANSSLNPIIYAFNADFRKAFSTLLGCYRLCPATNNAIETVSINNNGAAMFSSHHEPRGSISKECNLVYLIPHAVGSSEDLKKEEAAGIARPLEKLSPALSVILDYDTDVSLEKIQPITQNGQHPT

In the case of CC(=O)NCCCC[C@@H]1NC(=O)[C@H](Cc2c[nH]c3c(C)cccc23)NC(=O)[C@H]([C@@H](C)O)NC(=O)[C@H](CC(N)=O)NC(=O)[C@@H](NC(C)=O)C(C)(C)SSC(C)(C)[C@@H](C(=O)N[C@@H](Cc2ccc(OCCN)cc2)C(=O)N[C@@H](Cc2ccc3ccccc3c2)C(=O)NC2(C(=O)N[C@@H](CCC(=O)O)C(=O)N[C@@H](CC(N)=O)C(=O)N[C@@H](Cc3cccnc3)C(=O)N(C)CC(N)=O)CCOCC2)NC1=O [JNJ-77242113, S^3,1,S^3,6-cyclo[N-acetyl-3-sulfanyl-L-valyl-L-asparaginyl-L-threonyl-7-methyl-L-tryptophyl-N^6-acetyl-L-lysyl-3-sulfanyl-L-valyl-O-(2-aminoethyl)-L-tyrosyl-3-(naphthalen-2-yl)-L-alanyl-4-aminooxan-4-carbonyl-L-α-glutamyl-L-asparaginyl-3-(pyridin-3-yl)-L-alanyl-N^2-methylglycinamide]], the inhibition at 10 µM ([1]; 1st run, read-out: Percent inhibition of control ligand binding, A2A, 1st run) is reported as -8.7%, the inhibition at 10 µM ([1]; 2nd run, read-out: Percent inhibition of control ligand binding, A2A, 2nd run) is reported as -6.2% and the inhibition at 10 µM ([1]; mean of 2 runs, read-out: Percent inhibition of control ligand binding, A2A, Mean) is reported as -7.5%. It also gave an inhibition at 10 µM ([2]; 1st run, read-out: Percent inhibition of control ligand binding, D1, 1st run) of 2.2%, an inhibition at 10 µM ([2]; 2nd run, read-out: Percent inhibition of control ligand binding, D1, 2nd run) of 3.7% and an inhibition at 10 µM ([2]; mean of 2 runs, read-out: Percent inhibition of control ligand binding, D1, Mean) of 2.9%. For the same compound, the inhibition at 10 µM ([3]; 1st run, read-out: Percent inhibition of control ligand binding, N neuronal α4β2, 1st run) was -10.4%, the inhibition at 10 µM ([3]; 2nd run, read-out: Percent inhibition of control ligand binding, N neuronal α4β2, 2nd run) was -7.5% and the inhibition at 10 µM ([3]; mean of 2 runs, read-out: Percent inhibition of control ligand binding, N neuronal α4β2, Mean) was -8.9%. For the same compound, the inhibition at 10 µM ([4]; 1st run, read-out: Percent inhibition of control ligand binding, μ (MOP), 1st run) was 5.1%, the inhibition at 10 µM ([4]; 2nd run, read-out: Percent inhibition of control ligand binding, μ (MOP), 2nd run) was -4.8% and the inhibition at 10 µM ([4]; mean of 2 runs, read-out: Percent inhibition of control ligand binding, μ (MOP), Mean) was 0.1%. It also gave an inhibition at 10 µM ([5]; 1st run, read-out: Percent inhibition of control ligand binding, 5-HT2A, 1st run) of 7%, an inhibition at 10 µM ([5]; 2nd run, read-out: Percent inhibition of control ligand binding, 5-HT2A, 2nd run) of 3.3% and an inhibition at 10 µM ([5]; mean of 2 runs, read-out: Percent inhibition of control ligand binding, 5-HT2A, Mean) of 5.1%. The inhibition at 10 µM ([6]; 1st run, read-out: Percent inhibition of control ligand binding, GR, 1st run) was 3.5%, the inhibition at 10 µM ([6]; 2nd run, read-out: Percent inhibition of control ligand binding, GR, 2nd run) was -0.8% and the inhibition at 10 µM ([6]; mean of 2 runs, read-out: Percent inhibition of control ligand binding, GR, Mean) was 1.3%. The inhibition at 10 µM ([7]; 1st run, read-out: Percent inhibition of control ligand binding, Norepinephrine transporter, 1st run) was -1.3%, the inhibition at 10 µM ([7]; 2nd run, read-out: Percent inhibition of control ligand binding, Norepinephrine transporter, 2nd run) was -0.6% and the inhibition at 10 µM ([7]; mean of 2 runs, read-out: Percent inhibition of control ligand binding, Norepinephrine transporter, Mean) was -1%. The inhibition at 10 µM ([8]; 1st run, read-out: Percent inhibition of control ligand binding, Dopamine transporter, 1st run) was -3.6%, the inhibition at 10 µM ([8]; 2nd run, read-out: Percent inhibition of control ligand binding, Dopamine transporter, 2nd run) was -4.4% and the inhibition at 10 µM ([8]; mean of 2 runs, read-out: Percent inhibition of control ligand binding, Dopamine transporter, Mean) was -4%. For the same compound, the inhibition at 10 µM ([9]; 1st run, read-out: Percent inhibition of control ligand binding, COX1, 1st run) was -18.8%, the inhibition at 10 µM ([9]; 2nd run, read-out: Percent inhibition of control ligand binding, COX1, 2nd run) was -37.6% and the inhibition at 10 µM ([9]; mean of 2 runs, read-out: Percent inhibition of control ligand binding, COX1, Mean) was -28.2%. The “Mean dilution-adjusted exposure at 2 h (Tmax)” value ([10]; 10 mg/kg oral, plasma LC–MS/MS, dilution adjusted) was 660 pM, the “Exposures (in words)” value ([10]; in vivo oral doses less than 10 mg/kg) was “below the limit of quantification” and the “Plasma exposure versus dose (in words)” value ([11]; 100-fold dose range of 10 to 1000 mg oral) was “Dose-proportional plasma exposure”. The “Accumulation for AUC, Day 1 versus Day 10” value [11, 13] was 0.9 to 1.5, the “Accumulation for Cmax, Day 1 versus Day 10” value [11, 13] was 0.7 to 1.6 and the “Estimated terminal elimination half-life” value ([11]; oral 10 to 1000 mg, plasma LC–MS/MS) was 9 to 16 h. For the same compound, the “Tissue distribution (in words)” value [12] was “distributed freely”.
